PubChem BioAssay (NCI)
Values joined by “and” are separate entries in the source; they are usually repeats but may differ in a detail not shown here. Equal values may be shown once.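 Five compound concentrations were applied to cells in 96-well plates for 48 hours; endpoints were derived by simple linear interpolation of the resulting dose-response curve. GI50: concentration for 50% inhibition of growth. The concentration for full growth arrest is given as TGI.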

Experiments:
Test in all cases: inhibition of tumour cell growth, NCI panel, 48 h
[1] = tested on: OVCAR-8 ovarian
[2] = tested on: SF-295 CNS
[3] = tested on: SNB-75 CNS
[4] = tested on: IGROV1 ovarian
[5] = tested on: M14 melanoma
[6] = tested on: SNB-19 CNS
[7] = tested on: MDA-MB-435

Structure (SMILES) | GI50 [1] | TGI [1] | GI50 [2] | TGI [2] | GI50 [3] | TGI [3] | GI50 [4] | TGI [4] | GI50 [5] | TGI [5] | GI50 [6] | TGI [6] | GI50 [7] | TGI [7]
COc1ccc(C2CC(c3cc(OC)c(OC)c(OC)c3)=NN2C(C)=O)cc1OCC(=O)Nc1nc2ccc(C(F)(F)F)cc2s1 (stereo not given) | 3.36 µM | > 100 µM | 3.06 µM | 11.5 µM | 1.55 µM | 4.78 µM | 5.3 µM | > 100 µM | 6.44 µM | > 100 µM | 11 µM | 35.8 µM |  | 
CC(C)(C)c1n[nH]c(=S)n(/N=C/c2ccc(F)c(Oc3ccccc3)c2)c1=O | 25.6 µM | > 100 µM | 15.3 µM | > 100 µM | 32.5 µM | > 100 µM | 35.9 µM | > 100 µM | 42 µM | > 100 µM | 40.9 µM | > 100 µM | 38 µM | > 100 µM
O=C(C1CCCCC1)[C@@H]1[C@]2(C(=O)NC3CCCCC32)[C@@H]2CCCN2[C@@]12C(=O)NC1CCC(Cl)CC12 (stereo not given in full) | 162 µM | 394 µM | 149 µM | 299 µM | 58.1 µM | 256 µM | 53.2 µM | 202 µM | 116 µM | 253 µM | 148 µM | 299 µM | 112 µM | 245 µM
c1ccc2c(c1)c(NCCCCN1CCCCC1)cc1c3ccccc3c(NCCCCN3CCCCC3)cc21 | 21.2 µM | 47.2 µM | 22.8 µM | 65.4 µM |  |  | 36.9 µM | > 100 µM |  |  | 22.5 µM | 50.9 µM | 3.42 µM | 12.3 µM
O=C(/C(=C/c1ccccc1)CN1CCCCC1)c1ccccc1 | 0.616 µM | 4.29 µM | 2.42 µM | 7.08 µM | 3.76 µM | 17.8 µM | 1.89 µM | 6.25 µM | 1.23 µM | 2.88 µM | 3.9 µM | 15.7 µM | 0.57 µM | 5.21 µM
N#Cc1c(N/N=C/c2c(Cl)cccc2Cl)nc(N)nc1N1CCOCC1 | 60.6 µM | > 100 µM | 4.69 µM | > 100 µM | 35.5 µM | > 100 µM | 3.95 µM | 34.6 µM | 6.79 µM | 38.7 µM | 34.5 µM | > 100 µM | 3.26 µM | 36 µM
Cc1ccc(C(=O)Nc2cccc(C(F)(F)F)c2)cc1Nc1nc(-c2cccnc2)nc2c1cnn2C | 3 µM and 2.34 µM | 39.7 µM and > 10 µM | 2.12 µM and 1.84 µM | 4.99 µM and 4.47 µM | 2.83 µM and 2.17 µM | 11.1 µM and 6.05 µM | 1.74 µM and 0.851 µM | 8.71 µM and 5 µM | 1.05 µM and 0.442 µM | 3.66 µM and 3.43 µM | 4.16 µM and 3.18 µM | 17.1 µM and > 10 µM | 1.64 µM and 1.45 µM | 4.74 µM and 4.95 µM
COc1cc2c(cc1OCCCCOc1cc3c(cc1OC)C(=O)N1CCC[C@H]1CN3)N=C[C@@H]1CCCN1C2=O | 3.37 µM | > 33.1 µM |  | 1.2 µM | 3.58 µM | 16.9 µM | 2.42 µM | > 27 µM | 2.37 µM | 7.19 µM | 3.16 µM | > 100 µM | 0.464 µM | 10.4 µM
